According to ChEMBL document CHEMBL5726174, “Therapeutic compounds and uses thereof” (2019):

Biological target: T1, Bromodomain-containing protein 9 (Homo sapiens, UniProt Q9H8M2)
T1 sequence (Q9H8M2 whole entry): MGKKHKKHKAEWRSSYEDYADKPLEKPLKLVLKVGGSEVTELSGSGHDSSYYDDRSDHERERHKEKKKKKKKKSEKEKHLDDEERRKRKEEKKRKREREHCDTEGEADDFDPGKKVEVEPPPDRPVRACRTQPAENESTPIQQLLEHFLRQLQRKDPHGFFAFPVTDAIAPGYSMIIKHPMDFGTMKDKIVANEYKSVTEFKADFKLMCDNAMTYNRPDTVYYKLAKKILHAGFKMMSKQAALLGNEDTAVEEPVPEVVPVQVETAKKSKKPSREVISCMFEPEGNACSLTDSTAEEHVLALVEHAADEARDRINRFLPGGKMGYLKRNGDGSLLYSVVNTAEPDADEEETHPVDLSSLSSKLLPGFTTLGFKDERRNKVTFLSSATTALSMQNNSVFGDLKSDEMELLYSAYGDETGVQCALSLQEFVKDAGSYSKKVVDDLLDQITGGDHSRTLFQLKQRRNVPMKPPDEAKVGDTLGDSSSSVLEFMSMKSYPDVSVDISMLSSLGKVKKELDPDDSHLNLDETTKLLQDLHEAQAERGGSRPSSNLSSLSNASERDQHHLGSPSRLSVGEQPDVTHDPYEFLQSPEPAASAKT
Assay: IC50 measurements for inhibitors using BRD9 AlphaLisa Binding Assay: His/Flag epitope tagged BRD9134-239 was cloned, expressed, and purified to homogeneity. […] After 20 minutes incubation at room temperature AlphaLisa Streptavidin Acceptor Beads (Perkin-AL125C) and AlphaLisa Nickel donor beads (Perkin AS 10 ID) were added to a final concentration of 15 ug/mL each.

Row | Structure (SMILES) | IC50 [nM]
1 | C/C=C/Cn1cc(-c2cc(C(=O)NCC)ccc2OC)c2cc[nH]c2c1=O | 28
2 | C=CCn1cc(-c2cc(OC)c(C(=O)N3CCOCC3)cc2OC)c2cc(C)[nH]c2c1=O | 9
3 | CC(C)(O)c1ccc(-c2cn(CCC3CC3)c(=O)c3[nH]ccc23)cc1 | 280
4 | CCCCn1cc(-c2cc(C#N)ccc2OC)c2cc[nH]c2c1=O | 46
